In patent publication US4599331A, “Etianic acids as antiangiogenics” (Syntex (U.S.A.) Inc., priority 1984, dated 1986):
Several values for one entry are separate records, joined by “and”; a condition that tells them apart may be missing. Identical values can stand only once.

Assays:
[1] = system: alkaline phosphatase (APb); assay: alkaline phosphatase (APb) induction in LE II cells; format: cell-based, mouse; settings: Mus musculus, Table 1, about 65 hours, relative to dexamethasone = 1, read-out: Efficacy (DEX = 1) Alk P
Description: This is another standard test for glucocorticoid activity.
LE II cells were grown in DMEM plus 10% FCS, at 37° C., in a 10% carbon dioxide atmosphere. Confluent monolayers of cells were trypsinized and seeded at a 1:15 dilution into 6-well Costar cluster dishes. […] In all experiments, DEX, at concentrations of 10^-9 to 10^-6 M, was added to some of the wells as a positive control.
Cell monolayers were washed with PBS and harvested by scraping with a rubber policeman into 400 μl of a buffer of 20 mM Tris-HCl at pH 7.4; 2 mM MgCl2; and 150 mM NaCl together with 1% Triton X-100. Samples were transferred into 1.5 ml Eppendorf centrifuge tubes and placed on ice. The tubes were first vortexed and then centrifuged in the Eppendorf minicentrifuge for 2 minutes. Duplicate 100 μl aliquots of supernatant were placed into 12×75 mm glass test tubes for determination of APb activity, while the rest was saved for protein determination. […] The tubes were incubated in a 37° C. water bath for between 20 to 50 minutes, depending on the activity of the samples. The APb reaction was terminated by the addition of 0.5 ml of […]. The tubes were mixed and 200 μl portions from each tube were transferred in triplicate to a 96 well microtiter plate. The OD410 nm of each well was then determined using a Dynatech plate reader.
[…] of the cell supernatant were transferred to 96 well microtiter plates for protein determination by a modification of the Lowry method. […] The plates were shaken for 1 hour and then the OD630 was determined using a Dynatech plate reader. The protein content for each sample was calculated by comparing the average OD630 reading with those obtained for a bovine serum albumin standard curve.
The alkaline phosphatase activity of in each sample was expressed as μmoles product formed per minute per mg protein in the Alk P column of Tables 1 and 2. Results are expressed as the induction ability of a compound as compared to dexamethasone.

[2] = system: Hamster Melanoma RPM1 1846 tumor cells; assay: hamster cheek pouch (HCP) angiogenesis inhibition, 1846 tumor cell stimulus; format: in vivo, Male Syrian Golden hamsters; settings: Table 1; 3×10^5 tumor cells; between 0.5 and 4 mg/kg s.c. daily; each number independent result, average of six animals
Description: Each compound of the series was also tested for anti-angiogenic activity by an in vivo test that measured vascularization in a hamster's cheek pouch in response to either an angiogenic polypeptide growth factor, epidermal growth factor (EGF) or an induced […].
(§1) In this example, the in vivo angiogenesis inhibition activity of etianic acid esters was tested. Male Syrian Golden hamsters, weighing between 120 g and 150 g were anaesthetized by intraperitoneal (I.P.) injection of a rodent anaesthetic mixture consisting of 50 mg/kg ketamine hydrochloride, 5 mg/kg xylazine and 1 mg/kg acepromazine. The left cheek pouch of each animal was everted with a pincet and pinned down to a plexiglass-rubber stage and observed through a Zeiss stereomicroscope. 10 μg of EGF or 3×10^5 Hamster Melanoma RPM1 1846 tumor cells in 10 μl Cibachrome Blue agarose (Amicon) were injected subcutaneously in the left lower quadrant of the pouch with a Hamilton syringe.
(§2) The pouch was then reinserted and animals were kept under observation until recovered from anaesthesia.
The animals were dosed daily with one test compound, starting one day before stimulus injection and continuing until observation. The test compounds were dissolved in a minimum volume of ethanol and diluted in sterile phosphate buffer solution. […]
(§3) Either five days or twelve days after the EGF or tumor cell injection, animals were anaesthetized by I.P. injection of the rodent anaesthetic mixture. The pouch was everted on the stage and examined under the stereomicroscope. Pictures were taken with a 35 mm using Kodak Tungsten 50 professional films.
(§4) The following subjective scoring was used for evaluating the photographs:
(§5) 1: minimal branching of vessels in the vicinity of injection site.
(§6) 2: new vessels reach injection site, area involved is minimal (<50% of area surrounding injection site).
(§7) 3: many vessels reach and cross injection site, new vessels are tortuous, (>50% of area surrounding injection site).
(§8) 4: "full blown", many tortuous vessels, leakages, hemorrhages, 100% of area around injection site, invasion of new vessels into non-injected areas.
(§9) In the case of the tumor, tumor size was also determined. (See Table 4)
(§10) Results are expressed as the mean of the score. The results are shown in Tables 1 and 2 are percent inhibition of HCP Stimulus.

[3] = system: Hamster Melanoma RPM1 1846 tumor cells; assay: Inhibition of tumor growth (2 week assay); format: in vivo, Male Syrian Golden hamsters; settings: Table 3, dose 0.8 mg/kg
Description: as §1, §2
The animals were dosed daily with one test compound, starting one day before stimulus injection and continuing until observation. The test compounds were dissolved in a minimum volume of ethanol and diluted in sterile phosphate buffer solution. Then between 0.5 and 4 mg/kg of the test compound was injected subcutaneously.
as §3, §4, §5, §6, §7, §8, §9, §10

SMILES: CCC(=O)O[C@]1(C(=O)OC)[C@@H](C)C[C@H]2[C@@H]3CCC4=CC(=O)C=C[C@]4(C)[C@@]3(F)[C@@H](O)C[C@@]21C [compound 1]
- Emax [1]: 100%
- % Inhibition HCP Stimulus 1846 [2]: 40%

SMILES: CCC(=O)O[C@]1(C(=O)OC)[C@@H](C)C[C@H]2[C@@H]3CC(F)C4=C(F)C(=O)C=C[C@]4(C)[C@@]3(F)[C@@H](O)C[C@@]21C (stereo partly drawn) [compound 3]
- Emax [1]: 100%
- % Inhibition HCP Stimulus 1846 [2]: 70%

SMILES: CCCC(=O)O[C@]1(C(=O)OC)[C@@H](C)C[C@H]2[C@@H]3CC(F)C4=CC(=O)C=C[C@]4(C)[C@@]3(F)[C@@H](O)C[C@@]21C (stereo partly drawn) [compound 4]
- Emax [1]: 170%
- % Inhibition HCP Stimulus 1846 [2]: 26%

SMILES: CCC(=O)O[C@]1(C(=O)OC)[C@H](C)C[C@H]2[C@@H]3CC(F)C4=CC(=O)C=C[C@]4(C)[C@@]3(F)[C@@H](O)C[C@@]21C (stereo partly drawn) [compound 7]
- Emax [1]: 110%

SMILES: CCC(=O)O[C@]1(C(=O)OC)[C@H](C)C[C@H]2[C@@H]3CC(F)C4=C(F)C(=O)C=C[C@]4(C)[C@@]3(F)[C@@H](O)C[C@@]21C (stereo partly drawn) [compound 8]
- Emax [1]: 120%
- % Inhibition HCP Stimulus 1846 [2]: 41% and 58% and 75%

SMILES: CCCC(=O)O[C@]1(C(=O)OC)[C@H](C)C[C@H]2[C@@H]3CC(F)C4=CC(=O)C=C[C@]4(C)[C@@]3(F)[C@@H](O)C[C@@]21C (stereo partly drawn) [compound 9]
- Emax [1]: 90%
- % Inhibition HCP Stimulus 1846 [2]: 32%
- Angiogenesis % Inh. [3]: 29%
- Tumor area % (inhibition of tumor growth) [3]: 86%
- Angiogenesis score ([3]; mean of score 0 (no new vessels) to 4 (full blown), untreated 3.1 [A], 2.9 [B]): 2.2
- Tumor area Mn (mm^2) ([3]; untreated 40.7 ± 16.2 [A], 27.5 ± 15.3 [B]): 5.7 ± 5.9 mm^2
